Where “and” joins values, the source holds several entries; their conditions need not be identical. Equal entries are not always repeated.
Key:
[1] = biological target: EGFR (Homo sapiens, UniProt P00533); assay: In vitro EGFR tyrosine kinase inhibitory assay (Z'-LYTE, SelectScreen); assay type: biochemical; conditions: for inhibition at 10 µM / Mean % inhibition EGFR: 10 µM single dose; for inhibition at 0.0001 µM: 0.1 nM compound; for inhibition at 0.0001 µM / inhibition at 0.001 µM / inhibition at 0.01 µM / inhibition at 0.1 µM / inhibition at 1 µM: 10 μM ATP, read-out: % Inhibition mean, EGFR (ErbB1); for inhibition at 0.001 µM: 1 nM compound; for inhibition at 0.01 µM: 10 nM compound; for inhibition at 0.1 µM: 100 nM compound; for inhibition at 1 µM: 1000 nM compound; for IC50: read-out: IC50 in enzyme assays EGFR
Outline: (§1)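 Z'-LYTE fluorescence coupled-enzyme format, read-out based on differential protease cleavage of phosphorylated vs non-phosphorylated peptide. Compounds screened at 10 µM single dose for % inhibition, then selected ones tested at 0.1 nM–10 µM for IC50 by curve fitting.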

[2] = biological target: VEGFR-2 (Homo sapiens, UniProt P35968); assay: In vitro VEGFR-2 tyrosine kinase inhibitory assay (Z'-LYTE, SelectScreen); assay type: biochemical; conditions: 10 µM single dose
Outline: as §1

[3] = tested on: Hela nuclear extracts; assay: Hela nuclear extract HDAC inhibitor assay (BPS Bioscience); assay type: biochemical; conditions: 10 µM
Outline: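 HeLa nuclear extract (20-fold diluted) was incubated with […] HDAC Substrate 3, 5 µg BSA and compound (1% DMSO final) at 37 °C for 60 min, in duplicate. After 15 min with HDAC developer at room temperature, fluorescence was read at 360/460 nm and % activity normalized to no-compound and no-extract controls.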

[4] = tested on: OVCAR-8; assay: NCI one-dose screen; assay type: cell-based, human; conditions: Ovarian OVCAR-8, 10 µM single dose
Outline: (§2)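 One concentration (10 μM) applied to each line of the full NCI-60 panel; percent growth compared against untreated cells.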

[5] = tested on: NCI-H460; assay: NCI one-dose screen; assay type: cell-based, human; conditions: NSCLC NCI-H460, 10 µM single dose
Outline: as §2

[6] = tested on: NCI/ADR-RES; assay: NCI one-dose screen; assay type: cell-based, human; conditions: Ovarian NCI/ADR-RES, 10 µM single dose
Outline: as §2

[7] = tested on: MCF7; assay: NCI one-dose screen; assay type: cell-based, human; conditions: Breast MCF7, 10 µM single dose
Outline: (§3)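 Each cell line received compound at 10 μM as part of the NCI one-dose protocol. Values reflect growth inhibition percent calculated from growth relative to untreated controls.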

[8] = tested on: U251; assay: NCI one-dose screen; assay type: cell-based, human; conditions: CNS U251, 10 µM single dose
Outline: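 At 10 μM, a single concentration, compounds were evaluated for antiproliferative effect in the NCI 60-line screen, with growth expressed relative to untreated control cells.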

[9] = tested on: UACC-257; assay: NCI one-dose screen; assay type: cell-based, human; conditions: Melanoma UACC-257, 10 µM single dose
Outline: as §2

[10] = tested on: ACHN; assay: NCI one-dose screen; assay type: cell-based, human; conditions: Renal ACHN, 10 µM single dose
Outline: as §2

[11] = tested on: MDA-MB-231/ATCC; assay: NCI one-dose screen; assay type: cell-based, human; conditions: Breast MDA-MB-231/ATCC, 10 µM single dose
Outline: as §2

[12] = tested on: MDA-MB-468; assay: NCI one-dose screen; assay type: cell-based, human; conditions: for Growth Percent: Breast MDA-MB-468, 10 µM single dose
Outline: as §3

[13] = tested on: SF-295; assay: NCI one-dose screen; assay type: cell-based, human; conditions: CNS SF-295, 10 µM single dose
Outline: as §2

Sequence of VEGFR-2 (P35968 20-1356): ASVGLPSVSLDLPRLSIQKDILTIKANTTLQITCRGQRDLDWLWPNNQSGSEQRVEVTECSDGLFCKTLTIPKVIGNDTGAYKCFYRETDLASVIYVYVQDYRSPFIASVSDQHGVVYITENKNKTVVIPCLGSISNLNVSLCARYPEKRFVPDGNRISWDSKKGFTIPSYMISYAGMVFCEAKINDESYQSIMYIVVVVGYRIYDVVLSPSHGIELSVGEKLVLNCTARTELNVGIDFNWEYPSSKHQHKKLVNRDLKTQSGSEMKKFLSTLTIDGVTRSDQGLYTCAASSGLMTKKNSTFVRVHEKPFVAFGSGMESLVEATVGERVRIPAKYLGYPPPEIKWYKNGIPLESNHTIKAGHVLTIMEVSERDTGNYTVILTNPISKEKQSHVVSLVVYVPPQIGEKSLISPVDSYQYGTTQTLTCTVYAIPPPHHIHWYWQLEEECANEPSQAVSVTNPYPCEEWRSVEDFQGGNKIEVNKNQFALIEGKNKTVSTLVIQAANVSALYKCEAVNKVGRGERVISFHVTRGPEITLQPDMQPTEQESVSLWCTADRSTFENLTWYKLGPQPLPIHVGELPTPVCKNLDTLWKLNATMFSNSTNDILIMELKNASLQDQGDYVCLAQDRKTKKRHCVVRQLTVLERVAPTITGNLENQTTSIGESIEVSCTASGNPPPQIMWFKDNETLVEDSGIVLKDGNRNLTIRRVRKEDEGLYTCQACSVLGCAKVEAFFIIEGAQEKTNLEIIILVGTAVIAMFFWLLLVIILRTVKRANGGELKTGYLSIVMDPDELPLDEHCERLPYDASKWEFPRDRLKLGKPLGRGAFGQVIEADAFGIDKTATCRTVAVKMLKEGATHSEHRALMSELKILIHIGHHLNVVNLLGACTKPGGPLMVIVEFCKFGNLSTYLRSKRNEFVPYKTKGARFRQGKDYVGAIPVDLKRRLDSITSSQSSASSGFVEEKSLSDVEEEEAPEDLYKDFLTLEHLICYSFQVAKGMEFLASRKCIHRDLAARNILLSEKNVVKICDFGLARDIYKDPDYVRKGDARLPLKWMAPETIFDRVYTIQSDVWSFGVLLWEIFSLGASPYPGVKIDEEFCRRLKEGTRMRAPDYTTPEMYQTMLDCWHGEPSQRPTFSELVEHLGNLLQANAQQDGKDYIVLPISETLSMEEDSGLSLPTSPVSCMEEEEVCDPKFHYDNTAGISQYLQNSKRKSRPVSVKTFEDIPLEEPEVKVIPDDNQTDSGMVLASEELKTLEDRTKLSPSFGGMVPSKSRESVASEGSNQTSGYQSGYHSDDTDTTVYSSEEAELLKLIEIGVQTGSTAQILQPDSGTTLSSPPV
Sequence of EGFR (P00533 25-1210): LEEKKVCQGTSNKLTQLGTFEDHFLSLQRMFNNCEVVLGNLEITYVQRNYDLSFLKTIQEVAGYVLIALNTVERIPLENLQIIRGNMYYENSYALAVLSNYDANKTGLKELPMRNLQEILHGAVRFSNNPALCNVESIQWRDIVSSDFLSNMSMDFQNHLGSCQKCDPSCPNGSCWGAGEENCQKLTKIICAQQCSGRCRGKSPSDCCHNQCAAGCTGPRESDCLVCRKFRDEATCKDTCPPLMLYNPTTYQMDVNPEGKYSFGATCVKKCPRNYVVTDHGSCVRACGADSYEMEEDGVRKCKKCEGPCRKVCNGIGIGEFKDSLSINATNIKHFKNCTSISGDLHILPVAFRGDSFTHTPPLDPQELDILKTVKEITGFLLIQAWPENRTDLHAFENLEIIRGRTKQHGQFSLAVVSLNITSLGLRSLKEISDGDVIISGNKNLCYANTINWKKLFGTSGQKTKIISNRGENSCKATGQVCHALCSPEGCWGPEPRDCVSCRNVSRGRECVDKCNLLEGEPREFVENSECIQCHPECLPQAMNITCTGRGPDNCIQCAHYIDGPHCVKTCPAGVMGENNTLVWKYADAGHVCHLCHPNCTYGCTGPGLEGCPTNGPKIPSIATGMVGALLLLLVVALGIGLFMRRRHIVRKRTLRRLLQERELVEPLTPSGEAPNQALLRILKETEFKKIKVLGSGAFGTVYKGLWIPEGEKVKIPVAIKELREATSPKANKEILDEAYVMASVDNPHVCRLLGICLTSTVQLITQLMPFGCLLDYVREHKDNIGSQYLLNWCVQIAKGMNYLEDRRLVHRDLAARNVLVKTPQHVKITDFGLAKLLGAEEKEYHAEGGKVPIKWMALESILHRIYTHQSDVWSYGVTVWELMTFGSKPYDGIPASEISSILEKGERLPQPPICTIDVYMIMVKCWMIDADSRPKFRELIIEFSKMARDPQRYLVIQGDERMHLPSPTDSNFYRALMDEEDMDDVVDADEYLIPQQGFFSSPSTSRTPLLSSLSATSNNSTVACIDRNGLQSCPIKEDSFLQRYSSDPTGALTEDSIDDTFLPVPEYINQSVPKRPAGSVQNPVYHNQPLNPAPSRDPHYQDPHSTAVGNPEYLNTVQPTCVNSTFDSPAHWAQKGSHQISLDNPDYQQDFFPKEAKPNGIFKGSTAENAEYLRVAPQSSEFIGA

Structure (SMILES) | inhibition at 10 µM [1] | inhibition at 10 µM [2] | % Inhibition Hela Nuclear Extracts [3] | Growth Percent [4] | Growth Percent [5] | Growth Percent [6] | Growth Percent [7] | Growth Percent [8] | Growth Percent [9] | Growth Percent [10] | Growth Percent [11] | Growth Percent [12] | Growth Percent [13] | melting point | other results
Cc1c(C(=O)NO)sc2ncnc(Nc3ccc(F)c(Cl)c3)c12 [Compound 15d, 4–(3-chloro-4-fluorophenylamino)-N-hydroxy-5-methylthieno[2,3-d]pyrimidine-6-carboxamide] | 97% | 54% | 4% | 105.0% and 105.01% | 101.5% and 101.54% | 99.6% and 99.61% | 93.8% and 93.88% | 98.2% | 109.9% and 109.91% | 97.6% and 97.62% | 97.2% and 97.25% | 85.6% and 85.68% | 93.7% and 93.74% | 320 °C | 
Cc1c(C(=O)NCCC(=O)NO)sc2ncnc(Nc3ccccc3)c12 [Compound 19b, N-(3-(hydroxyamino)-3-oxopropyl)-5-methyl-4-(phenylamino)thieno[2,3-d]pyrimidine-6-carboxamide] | 76% | 13% | 5% | 99.4% and 99.45% | 100.8% and 100.82% | 97.2% and 97.26% | 92.3% and 92.31% | 101.5% and 101.54% | 105.0% and 105.04% | 106.3% and 106.37% | 101.7% and 101.73% | 92.2% and 92.23% | 91.8% and 91.88% | 267 to 270 °C | 
Cc1c(C(=O)NCCC(=O)NO)sc2ncnc(Nc3ccc(Cl)cc3)c12 [Compound 19c, 4–(4-chlorophenylamino)-N-(3-(hydroxyamino)-3-oxopropyl)-5-methylthieno[2,3-d]pyrimidine-6-carboxamide] | 78% | 21% | 7% | 104.1% and 104.13% | 100.4% and 100.45% | 105.4% and 105.48% | 93.4% | 104.8% and 104.84% | 115.4% | 106.8% and 106.82% | 104.1% and 104.18% | 119.7% and 119.73% | 99.7% and 99.97% | 282 °C | 
Cc1c(C(=O)NCCC(=O)NO)sc2ncnc(Nc3ccc(F)c(Cl)c3)c12 [Compound 19d, 4–(3-chloro-4-fluorophenylamino)-N-(3-(hydroxyamino)-3-oxopropyl)-5-methylthieno[2,3-d]pyrimidine-6-carboxamide] | 96% | 26% | 2% | 101.3% and 101.35% | 100.4% and 100.44% | 101.4% and 101.46% | 95.1% and 95.18% | 102.2% and 102.27% | 99.7% and 99.74% | 102.1% and 102.14% | 102.5% and 102.53% | 102.7% and 102.77% | 96.0% and 96.07% | 276 °C | 
Cc1c(C(=O)NCCCC(=O)NO)sc2ncnc(Nc3ccccc3)c12 [Compound 20b, N-(4-(hydroxyamino)-4-oxobutyl)-5-methyl-4-(phenylamino)thieno[2,3-d]pyrimidine-6-carboxamide] | 92% | 25% | 21% | 98.7% | 99.4% and 99.46% | 100.6% and 100.67% | 92.1% and 92.13% | 98.2% and 98.23% | 103.9% and 103.93% | 103.8% and 103.87% | 110.9% and 110.91% | 98.0% and 98.03% | 90.6% and 90.64% | 205 °C | inhibition at 0.0001 µM [1]: 2%; inhibition at 0.001 µM [1]: 1%; inhibition at 0.01 µM [1]: 7%; inhibition at 0.1 µM [1]: 35%; inhibition at 1 µM [1]: 85%; IC50 [1]: 155 nM
Cc1c(C(=O)NCCCC(=O)NO)sc2ncnc(Nc3ccc(Cl)cc3)c12 [Compound 20c, 4–(4-chlorophenylamino)-N-(4-(hydroxyamino)-4-oxobutyl)-5-methylthieno[2,3-d]pyrimidine-6-carboxamide] | 96% | 35% | 3% | 105.5% | 101.9% and 101.95% | 100.5% and 100.58% | 91.4% and 91.44% | 103.1% and 103.12% | 112.8% and 112.86% | 105.1% and 105.18% | 95.4% and 95.46% | 110.9% and 110.91% | 101.19% | 212 °C | Mean % inhibition EGFR [1]: 91%
Cc1c(C(=O)NCCCC(=O)NO)sc2ncnc(Nc3ccc(F)c(Cl)c3)c12 [Compound 20d, 4–(3-chloro-4-fluorophenylamino)-N-(4-(hydroxyamino)-4-oxobutyl)-5-methylthieno[2,3-d]pyrimidine-6-carboxamide] | 97% | 20% | 0% | 99.6% and 99.61% | 101.8% and 101.82% | 104.1% and 104.13% | 91.4% and 91.48% | 99.1% and 99.18% | 103% | 102.2% and 102.28% | 99.7% and 99.77% | 83.8% and 83.88% | 101.9% | 244 to 246 °C | inhibition at 0.0001 µM [1]: 1%; inhibition at 0.001 µM [1]: 5%; inhibition at 0.01 µM [1]: 14%; inhibition at 0.1 µM [1]: 58%; inhibition at 1 µM [1]: 93%; Mean % inhibition EGFR [1]: 96%; IC50 [1]: 68 nM; inhibition at 10 µM ([12]; Homo sapiens, breast MDA-MB-468, 10 μM): 16.2%
